Activity calls are given as the source filed them. The calls are words filed in the database; no cut-off is given here.
Columns and labels:
[1] = molecular target: Serine/threonine-protein kinase WNK4 (Homo sapiens) (UniProt Q96J92); assay: activity of WNK4(h) at 1.0 µM in the Eurofins Kinase panel; settings: Compound concentration 1.0 uM
[2] = molecular target: Tyrosine-protein kinase receptor TYRO3 (Homo sapiens) (UniProt Q06418); assay: activity of Rse(h) at 1.0 µM in the Eurofins Kinase panel; settings: Compound concentration 1.0 uM
[3] = molecular target: Serine/threonine-protein kinase WNK1 (Homo sapiens) (UniProt Q9H4A3); assay: activity of WNK1(h) at 1.0 µM in the Eurofins Kinase panel; settings: Compound concentration 1.0 uM
[4] = molecular target: Ribosomal protein S6 kinase alpha-1 (Homo sapiens) (UniProt Q15418); assay: activity of Rsk1(h) at 1.0 µM in the Eurofins Kinase panel; settings: Compound concentration 1.0 uM
[5] = molecular target: High affinity nerve growth factor receptor (Homo sapiens) (UniProt P04629); assay: activity of TrkA(h) at 1.0 µM in the Eurofins Kinase panel; settings: Compound concentration 1.0 uM
[6] = molecular target: Ephrin type-A receptor 2 (Homo sapiens) (UniProt P29317); assay: activity of EphA2(h) at 1.0 µM in the Eurofins Kinase panel; settings: Compound concentration 1.0 uM
[7] = molecular target: Calcium/calmodulin-dependent protein kinase type II subunit beta (Homo sapiens) (UniProt Q13554); assay: activity of CaMKIIbeta(h) at 1.0 µM in the Eurofins Kinase panel; settings: Compound concentration 1.0 uM
[8] = molecular target: Serine/threonine-protein kinase N2 (Homo sapiens) (UniProt Q16513); assay: activity of PRK2(h) at 1.0 µM in the Eurofins Kinase panel; settings: Compound concentration 1.0 uM
[9] = molecular target: Casein kinase 2 (Homo sapiens) (UniProt P67870+P68400+P19784+Q8NEV1); assay: activity of CK2(h) at 1.0 µM in the Eurofins Kinase panel; format: protein assay; settings: Compound concentration 1.0 uM
[10] = molecular target: Ribosomal protein S6 kinase alpha-4 (Homo sapiens) (UniProt O75676); assay: activity of MSK2(h) at 1.0 µM in the Eurofins Kinase panel; settings: Compound concentration 1.0 uM
[11] = molecular target: Myosin-IIIb (Homo sapiens) (UniProt Q8WXR4); assay: activity of MYO3B(h) at 1.0 µM in the Eurofins Kinase panel; settings: Compound concentration 1.0 uM
Sequence of Myosin-IIIb (Homo sapiens) (Q8WXR4 whole entry): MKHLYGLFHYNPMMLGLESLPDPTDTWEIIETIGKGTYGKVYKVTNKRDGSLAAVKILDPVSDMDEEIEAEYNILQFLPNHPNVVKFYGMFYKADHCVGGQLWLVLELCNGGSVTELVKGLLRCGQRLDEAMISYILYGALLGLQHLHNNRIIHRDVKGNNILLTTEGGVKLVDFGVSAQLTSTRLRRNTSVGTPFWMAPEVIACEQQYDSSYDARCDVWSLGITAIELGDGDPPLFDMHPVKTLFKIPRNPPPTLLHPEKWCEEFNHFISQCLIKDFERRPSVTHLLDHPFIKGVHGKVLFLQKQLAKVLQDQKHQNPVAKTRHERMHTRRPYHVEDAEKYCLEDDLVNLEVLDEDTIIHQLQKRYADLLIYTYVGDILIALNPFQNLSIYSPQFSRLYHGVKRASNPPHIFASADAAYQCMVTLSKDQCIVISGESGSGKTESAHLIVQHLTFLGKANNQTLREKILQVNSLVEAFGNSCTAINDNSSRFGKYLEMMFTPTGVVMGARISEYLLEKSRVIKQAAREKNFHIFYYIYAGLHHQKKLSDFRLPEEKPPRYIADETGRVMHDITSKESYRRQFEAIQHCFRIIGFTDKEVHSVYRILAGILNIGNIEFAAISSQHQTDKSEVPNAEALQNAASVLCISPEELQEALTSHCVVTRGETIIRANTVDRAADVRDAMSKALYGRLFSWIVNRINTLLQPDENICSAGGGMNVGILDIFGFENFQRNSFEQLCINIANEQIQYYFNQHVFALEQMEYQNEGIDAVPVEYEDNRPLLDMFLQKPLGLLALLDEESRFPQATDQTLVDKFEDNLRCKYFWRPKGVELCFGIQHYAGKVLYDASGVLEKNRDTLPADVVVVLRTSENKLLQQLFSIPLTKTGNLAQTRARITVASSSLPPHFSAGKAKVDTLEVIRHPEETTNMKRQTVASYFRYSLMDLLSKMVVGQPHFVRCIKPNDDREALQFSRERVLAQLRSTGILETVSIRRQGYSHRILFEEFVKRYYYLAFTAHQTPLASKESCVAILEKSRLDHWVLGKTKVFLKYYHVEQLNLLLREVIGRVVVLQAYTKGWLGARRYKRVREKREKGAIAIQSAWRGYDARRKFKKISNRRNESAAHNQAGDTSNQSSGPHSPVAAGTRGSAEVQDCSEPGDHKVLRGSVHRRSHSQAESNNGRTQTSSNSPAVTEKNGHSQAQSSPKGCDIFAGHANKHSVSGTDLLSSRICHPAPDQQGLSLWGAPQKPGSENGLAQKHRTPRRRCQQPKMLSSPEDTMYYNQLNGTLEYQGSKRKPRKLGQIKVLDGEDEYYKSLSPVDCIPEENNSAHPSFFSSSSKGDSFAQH

[12] = molecular target: BDNF/NT-3 growth factors receptor (Homo sapiens) (UniProt Q16620); assay: activity of TrkB(h) at 1.0 µM in the Eurofins Kinase panel; settings: Compound concentration 1.0 uM
[13] = molecular target: Dual specificity protein kinase CLK1 (Homo sapiens) (UniProt P49759); assay: activity of CLK1(h) at 1.0 µM in the Eurofins Kinase panel; settings: Compound concentration 1.0 uM
[14] = molecular target: Cyclin-dependent kinase 1/cyclin B (Homo sapiens) (UniProt P06493+P14635+Q8WWL7+O95067); assay: activity of CDK1/cyclinB(h) at 1.0 µM in the Eurofins Kinase panel; format: protein-complex assay; settings: Compound concentration 1.0 uM
[15] = molecular target: Testis-specific serine/threonine-protein kinase 2 (Homo sapiens) (UniProt Q96PF2); assay: activity of TSSK2(h) at 1.0 µM in the Eurofins Kinase panel; settings: Compound concentration 1.0 uM
[16] = molecular target: Phosphatidylinositol 4-phosphate 5-kinase type-1 gamma (Homo sapiens) (UniProt O60331); assay: activity of PIP5K1gamma(h) at 1.0 µM in the Eurofins Kinase panel; settings: Compound concentration 1.0 uM
[17] = molecular target: Cytoplasmic tyrosine-protein kinase BMX (Homo sapiens) (UniProt P51813); assay: activity of Bmx(h) at 1.0 µM in the Eurofins Kinase panel; settings: Compound concentration 1.0 uM
[18] = molecular target: [Pyruvate dehydrogenase (acetyl-transferring)] kinase isozyme 2, mitochondrial (Homo sapiens) (UniProt Q15119); assay: activity of PDHK2(h) at 1.0 µM in the Eurofins Kinase panel; settings: Compound concentration 1.0 uM
[19] = molecular target: Homeodomain-interacting protein kinase 3 (Homo sapiens) (UniProt Q9H422); assay: activity of HIPK3(h) at 1.0 µM in the Eurofins Kinase panel; settings: Compound concentration 1.0 uM
Sequence of Homeodomain-interacting protein kinase 3 (Homo sapiens) (Q9H422 whole entry, looked up): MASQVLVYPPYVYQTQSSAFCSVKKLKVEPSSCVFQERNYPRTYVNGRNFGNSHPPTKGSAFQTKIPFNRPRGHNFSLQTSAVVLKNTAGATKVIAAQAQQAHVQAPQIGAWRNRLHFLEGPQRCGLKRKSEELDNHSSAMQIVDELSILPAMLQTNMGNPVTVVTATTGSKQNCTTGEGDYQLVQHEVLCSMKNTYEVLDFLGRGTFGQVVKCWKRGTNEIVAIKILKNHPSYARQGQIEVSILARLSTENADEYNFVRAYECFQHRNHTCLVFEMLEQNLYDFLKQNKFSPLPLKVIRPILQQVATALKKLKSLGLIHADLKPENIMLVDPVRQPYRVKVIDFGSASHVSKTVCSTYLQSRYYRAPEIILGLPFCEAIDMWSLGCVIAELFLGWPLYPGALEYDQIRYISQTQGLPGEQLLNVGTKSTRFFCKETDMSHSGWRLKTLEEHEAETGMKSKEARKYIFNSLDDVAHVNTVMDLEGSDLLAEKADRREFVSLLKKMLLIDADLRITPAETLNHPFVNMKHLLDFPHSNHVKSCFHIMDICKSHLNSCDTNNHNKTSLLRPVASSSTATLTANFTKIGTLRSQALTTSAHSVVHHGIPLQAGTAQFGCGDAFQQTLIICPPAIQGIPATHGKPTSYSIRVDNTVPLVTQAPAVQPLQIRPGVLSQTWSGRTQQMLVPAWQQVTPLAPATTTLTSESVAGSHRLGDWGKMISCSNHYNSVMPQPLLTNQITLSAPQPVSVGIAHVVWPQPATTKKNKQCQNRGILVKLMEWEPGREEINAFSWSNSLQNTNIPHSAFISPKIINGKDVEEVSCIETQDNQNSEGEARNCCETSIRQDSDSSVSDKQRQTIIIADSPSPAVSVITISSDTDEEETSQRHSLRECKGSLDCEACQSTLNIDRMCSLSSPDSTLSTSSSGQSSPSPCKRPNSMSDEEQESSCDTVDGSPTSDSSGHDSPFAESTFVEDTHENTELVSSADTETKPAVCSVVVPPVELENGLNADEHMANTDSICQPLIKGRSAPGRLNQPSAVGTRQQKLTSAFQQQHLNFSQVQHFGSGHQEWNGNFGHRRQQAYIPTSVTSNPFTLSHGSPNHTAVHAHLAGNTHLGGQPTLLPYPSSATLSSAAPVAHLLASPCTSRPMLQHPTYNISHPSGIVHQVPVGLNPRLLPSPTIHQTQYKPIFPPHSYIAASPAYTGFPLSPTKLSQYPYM

[20] = molecular target: Tyrosine-protein kinase Yes (Homo sapiens) (UniProt P07947); assay: activity of Yes(h) at 1.0 µM in the Eurofins Kinase panel; settings: Compound concentration 1.0 uM
[21] = molecular target: Serine/threonine-protein kinase 38-like (Homo sapiens) (UniProt Q9Y2H1); assay: activity of NDR2(h) at 1.0 µM in the Eurofins Kinase panel; settings: Compound concentration 1.0 uM
[22] = molecular target: Dual specificity protein kinase TTK (Homo sapiens) (UniProt P33981); assay: activity of TTK(h) at 1.0 µM in the Eurofins Kinase panel; settings: Compound concentration 1.0 uM
[23] = molecular target: TGF-beta receptor type-1 (Homo sapiens) (UniProt P36897); assay: activity of TGFBR1(h) at 1.0 µM in the Eurofins Kinase panel; settings: Compound concentration 1.0 uM
Sequence of TGF-beta receptor type-1 (Homo sapiens) (P36897 whole entry): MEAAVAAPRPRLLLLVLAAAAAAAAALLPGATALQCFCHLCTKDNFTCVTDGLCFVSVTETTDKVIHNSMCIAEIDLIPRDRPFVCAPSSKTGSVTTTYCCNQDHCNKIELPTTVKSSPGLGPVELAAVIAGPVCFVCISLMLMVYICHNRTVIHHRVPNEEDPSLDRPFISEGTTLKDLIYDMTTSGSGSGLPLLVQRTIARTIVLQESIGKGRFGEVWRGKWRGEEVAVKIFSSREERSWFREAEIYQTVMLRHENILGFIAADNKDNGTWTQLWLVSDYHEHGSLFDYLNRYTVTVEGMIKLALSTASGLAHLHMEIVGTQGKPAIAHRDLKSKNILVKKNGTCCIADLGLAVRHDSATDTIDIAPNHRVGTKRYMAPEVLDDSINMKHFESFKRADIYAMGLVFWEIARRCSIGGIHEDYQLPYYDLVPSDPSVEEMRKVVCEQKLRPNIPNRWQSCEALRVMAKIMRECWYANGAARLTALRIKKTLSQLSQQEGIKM

[24] = molecular target: Testis-specific serine/threonine-protein kinase 4 (Homo sapiens) (UniProt Q6SA08); assay: activity of TSSK4(h) at 1.0 µM in the Eurofins Kinase panel; settings: Compound concentration 1.0 uM
[25] = molecular target: Tau-tubulin kinase 2 (Homo sapiens) (UniProt Q6IQ55); assay: activity of TTBK2(h) at 1.0 µM in the Eurofins Kinase panel; settings: Compound concentration 1.0 uM
[26] = molecular target: Serine/threonine-protein kinase 4 (Homo sapiens) (UniProt Q13043); assay: activity of MST1(h) at 1.0 µM in the Eurofins Kinase panel; settings: Compound concentration 1.0 uM
[27] = molecular target: Tyrosine-protein kinase FRK (Homo sapiens) (UniProt P42685); assay: activity of PTK5(h) at 1.0 µM in the Eurofins Kinase panel; settings: Compound concentration 1.0 uM
[28] = molecular target: Serine/threonine-protein kinase Nek9 (Homo sapiens) (UniProt Q8TD19); assay: activity of NEK9(h) at 1.0 µM in the Eurofins Kinase panel; settings: Compound concentration 1.0 uM
[29] = molecular target: Tyrosine-protein kinase Fes/Fps (Homo sapiens) (UniProt P07332); assay: activity of Fes(h) at 1.0 µM in the Eurofins Kinase panel; settings: Compound concentration 1.0 uM
Sequence of Tyrosine-protein kinase Fes/Fps (Homo sapiens) (P07332 whole entry): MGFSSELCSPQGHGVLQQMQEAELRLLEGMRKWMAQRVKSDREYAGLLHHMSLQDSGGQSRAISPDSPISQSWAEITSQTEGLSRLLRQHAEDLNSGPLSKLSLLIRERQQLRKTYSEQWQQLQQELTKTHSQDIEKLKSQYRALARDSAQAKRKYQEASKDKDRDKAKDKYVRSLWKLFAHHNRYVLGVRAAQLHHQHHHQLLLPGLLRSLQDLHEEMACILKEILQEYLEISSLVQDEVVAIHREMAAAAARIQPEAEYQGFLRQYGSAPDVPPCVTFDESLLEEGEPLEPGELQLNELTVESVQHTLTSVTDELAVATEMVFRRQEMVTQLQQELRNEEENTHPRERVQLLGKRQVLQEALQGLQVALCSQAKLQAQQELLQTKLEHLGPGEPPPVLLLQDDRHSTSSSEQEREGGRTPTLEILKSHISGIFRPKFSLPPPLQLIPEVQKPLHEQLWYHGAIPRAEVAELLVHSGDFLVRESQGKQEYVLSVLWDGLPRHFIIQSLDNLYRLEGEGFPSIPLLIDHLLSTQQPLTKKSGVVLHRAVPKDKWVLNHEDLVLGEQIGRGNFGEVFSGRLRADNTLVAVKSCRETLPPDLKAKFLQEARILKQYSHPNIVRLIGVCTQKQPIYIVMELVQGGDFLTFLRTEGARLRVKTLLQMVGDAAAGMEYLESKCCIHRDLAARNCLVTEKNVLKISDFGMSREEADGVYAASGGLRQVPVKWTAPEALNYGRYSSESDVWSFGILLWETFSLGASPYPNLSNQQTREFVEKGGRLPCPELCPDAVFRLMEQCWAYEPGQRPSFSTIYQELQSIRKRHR

[30] = molecular target: Interferon-induced, double-stranded RNA-activated protein kinase (Homo sapiens) (UniProt P19525); assay: activity of PKR(h) at 1.0 µM in the Eurofins Kinase panel; settings: Compound concentration 1.0 uM
[31] = molecular target: Serine/threonine-protein kinase PLK3 (Homo sapiens) (UniProt Q9H4B4); assay: activity of Plk3(h) at 1.0 µM in the Eurofins Kinase panel; settings: Compound concentration 1.0 uM
[32] = molecular target: Serine/threonine-protein kinase 35 (Homo sapiens) (UniProt Q8TDR2); assay: activity of CLIK1(h) at 1.0 µM in the Eurofins Kinase panel; settings: Compound concentration 1.0 uM
[33] = molecular target: Citron Rho-interacting kinase (Homo sapiens, UniProt O14578); assay: NanoLuc NanoBRET (CITKD); settings: read-out: Kd
[34] = molecular target: Tyrosine-protein kinase Blk (Homo sapiens) (UniProt P51451); assay: activity of Blk(h) at 1.0 µM in the Eurofins Kinase panel; settings: Compound concentration 1.0 uM
Sequence of Tyrosine-protein kinase Blk (Homo sapiens) (P51451 2-505 limits assumed): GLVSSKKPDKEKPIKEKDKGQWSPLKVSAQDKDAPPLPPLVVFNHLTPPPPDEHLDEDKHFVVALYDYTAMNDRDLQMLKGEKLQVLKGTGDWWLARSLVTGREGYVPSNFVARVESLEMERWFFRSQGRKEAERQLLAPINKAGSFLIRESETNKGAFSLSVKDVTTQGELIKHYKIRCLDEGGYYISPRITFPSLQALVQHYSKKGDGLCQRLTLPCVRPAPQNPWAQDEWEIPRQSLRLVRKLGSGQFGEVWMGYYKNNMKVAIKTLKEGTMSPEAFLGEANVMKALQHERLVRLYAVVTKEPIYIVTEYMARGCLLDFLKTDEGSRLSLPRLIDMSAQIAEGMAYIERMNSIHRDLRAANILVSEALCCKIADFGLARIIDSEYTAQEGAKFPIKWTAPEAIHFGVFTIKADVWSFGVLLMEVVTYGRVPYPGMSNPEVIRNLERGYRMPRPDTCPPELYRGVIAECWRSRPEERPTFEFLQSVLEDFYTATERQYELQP

[35] = molecular target: Myosin light chain kinase 2, skeletal/cardiac muscle (Homo sapiens) (UniProt Q9H1R3); assay: activity of MYLK2(h) at 1.0 µM in the Eurofins Kinase panel; settings: Compound concentration 1.0 uM
Sequence of Myosin light chain kinase 2, skeletal/cardiac muscle (Homo sapiens) (Q9H1R3 whole entry): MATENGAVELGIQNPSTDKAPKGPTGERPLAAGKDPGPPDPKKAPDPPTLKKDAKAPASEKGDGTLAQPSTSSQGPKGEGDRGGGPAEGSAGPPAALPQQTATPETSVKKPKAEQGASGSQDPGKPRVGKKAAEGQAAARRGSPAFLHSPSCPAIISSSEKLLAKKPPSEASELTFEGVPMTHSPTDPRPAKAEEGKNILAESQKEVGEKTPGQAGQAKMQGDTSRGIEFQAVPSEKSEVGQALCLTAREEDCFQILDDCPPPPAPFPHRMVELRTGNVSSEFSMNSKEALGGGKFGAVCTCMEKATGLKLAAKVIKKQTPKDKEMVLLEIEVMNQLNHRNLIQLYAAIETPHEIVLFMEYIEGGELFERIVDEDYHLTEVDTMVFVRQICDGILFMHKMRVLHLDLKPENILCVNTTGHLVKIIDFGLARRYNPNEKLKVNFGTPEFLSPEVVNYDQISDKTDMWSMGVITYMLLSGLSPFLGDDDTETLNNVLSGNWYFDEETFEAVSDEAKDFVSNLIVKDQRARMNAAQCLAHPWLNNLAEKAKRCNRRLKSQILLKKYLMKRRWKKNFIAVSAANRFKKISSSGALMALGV

[36] = molecular target: Protein kinase C gamma type (Homo sapiens) (UniProt P05129); assay: activity of PKCgamma(h) at 1.0 µM in the Eurofins Kinase panel; settings: Compound concentration 1.0 uM
[37] = molecular target: SRSF protein kinase 1 (Homo sapiens) (UniProt Q96SB4); assay: activity of SRPK1(h) at 1.0 µM in the Eurofins Kinase panel; settings: Compound concentration 1.0 uM
[38] = molecular target: Protein-tyrosine kinase 6 (Homo sapiens) (UniProt Q13882); assay: activity of BRK(h) at 1.0 µM in the Eurofins Kinase panel; settings: Compound concentration 1.0 uM
[39] = molecular target: Serine/threonine-protein kinase OSR1 (Homo sapiens) (UniProt O95747); assay: activity of OSR1(h) at 1.0 µM in the Eurofins Kinase panel; settings: Compound concentration 1.0 uM

activity [1]: 97% | activity [2]: 129% | activity [3]: 109% | activity [4]: 99% | activity [5]: 105% | activity [6]: 95% | activity [7]: 93% | activity [8]: 92% | activity [9]: 112% | activity [10]: 88% | activity [11]: 79% | activity [12]: 84% | activity [13]: 88% | activity [14]: 94% | activity [15]: 113% | activity [16]: 102% | activity [17]: 97% | activity [18]: 87% | activity [19]: 85% | activity [20]: 87% | activity [21]: 107% | activity [22]: 102% | activity [23]: 103% | activity [24]: 117% | activity [25]: 94% | activity [26]: 76% | activity [27]: 90% | activity [29]: 111% | activity [30]: 85% | activity [31]: 100% | activity [32]: 97% | Kd [33]: 0.3 nM (active) | activity [34]: 88% | activity [35]: 76% | activity [36]: 97% | activity [37]: 95% | activity [38]: 83% | activity [39]: 80%
Structure (SMILES): Cc1cc2c(-c3ccc(NC(=O)[C@H](N)CC(C)(C)C)cc3C)ccnc2[nH]1
activity [28]: 79%
